Measurements published in ChEMBL document CHEMBL1201862, “PubChem BioAssay data set” (2004).
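Assay format: 96-well plates, 48-hour exposure. At the GI50, growth is halved.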 Activity calls are given as the source filed them. No stated cut-off is given here; in the data, active = GI50 up to about 1.1 µM and inactive = higher.

Columns and labels:
Assay in all cases: DTP human tumour cell line panel, 48 h
Hs-578T = test system: Hs-578T
SK-MEL-5 = test system: SK-MEL-5
MOLT-4 = test system: MOLT-4
RPMI-8226 = test system: RPMI-8226
SR = test system: SR
SK-MEL-2 = test system: SK-MEL-2
Malme-3M = test system: Malme-3M
UACC-257 = test system: UACC-257
SN12C = test system: SN12C
NCI-H460 = test system: NCI-H460
SNB-75 = test system: SNB-75
LOX IMVI = test system: LOX IMVI
K562 = test system: K562
OVCAR-8 = test system: OVCAR-8
CAKI-1 = test system: CAKI-1
786-0 = test system: 786-0
SF-539 = test system: SF-539
UO-31 = test system: UO-31
KM12 = test system: KM12
A498 = test system: A498
M14 = test system: M14
PC-3 = test system: PC-3
MDA-MB-435 = test system: MDA-MB-435
HT-29 = test system: HT-29
A549 = test system: A549
OVCAR-3 = test system: OVCAR-3
T47D = test system: T47D
SK-MEL-28 = test system: SK-MEL-28
COLO 205 = test system: COLO 205
NCI-H522 = test system: NCI-H522
U-251 = test system: U-251
IGROV-1 = test system: IGROV-1
HCT-15 = test system: HCT-15
HL-60 = test system: HL-60
DU-145 = test system: DU-145
OVCAR-5 = test system: OVCAR-5
NCI-H226 = test system: NCI-H226
ACHN = test system: ACHN
NCI/ADR-RES = test system: NCI/ADR-RES
SF-295 = test system: SF-295
HCT-116 = test system: HCT-116
OVCAR-4 = test system: OVCAR-4
SW-620 = test system: SW-620
HCC 2998 = test system: HCC 2998
MDA-MB-231 = test system: MDA-MB-231
TK-10 = test system: TK-10
NCI-H23 = test system: NCI-H23
MCF7 = test system: MCF7
UACC-62 = test system: UACC-62
SF-268 = test system: SF-268
EKVX = test system: EKVX
HOP-62 = test system: HOP-62
SNB-19 = test system: SNB-19
CCRF-CEM = test system: CCRF-CEM
SK-OV-3 = test system: SK-OV-3
RXF 393 = test system: RXF 393
MDA-N = test system: MDA-N

In the case of N#CC(c1ccccc1)c1cccc2ccccc12 (stereo not drawn), the GI50 (Hs-578T) is reported as 36.7 µM (inactive), the GI50 (SK-MEL-5) is reported as 18.2 µM (inactive) and the GI50 (MOLT-4) is reported as 17.5 µM (inactive). For the same compound, the GI50 (RPMI-8226) was 25.7 µM (inactive), the GI50 (SR) was 12.3 µM (inactive) and the GI50 (SK-MEL-2) was 25.6 µM (inactive). The GI50 (Malme-3M) was 21.5 µM (inactive), the GI50 (UACC-257) was 24.4 µM (inactive) and the GI50 (SN12C) was 68.4 µM (inactive). The GI50 (NCI-H460) was 35.8 µM (inactive), the GI50 (SNB-75) was > 100 µM (inactive) and the GI50 (LOX IMVI) was 21.3 µM (inactive). For the same compound, the GI50 (K562) was 26 µM (inactive), the GI50 (OVCAR-8) was 27.4 µM (inactive) and the GI50 (CAKI-1) was 17.4 µM (inactive). For the same compound, the GI50 (786-0) was 69.5 µM (inactive), the GI50 (SF-539) was 30.6 µM (inactive) and the GI50 (UO-31) was 28.2 µM (inactive). The GI50 (KM12) was 21.8 µM (inactive), the GI50 (A498) was 30.4 µM (inactive) and the GI50 (M14) was 30.6 µM (inactive). The GI50 (PC-3) was 22.5 µM (inactive), the GI50 (MDA-MB-435) was 20.2 µM (inactive) and the GI50 (HT-29) was 43.2 µM (inactive). The GI50 (A549) was 20.1 µM (inactive), the GI50 (OVCAR-3) was 29.9 µM (inactive) and the GI50 (T47D) was 38.5 µM (inactive). For the same compound, the GI50 (SK-MEL-28) was 69.7 µM (inactive), the GI50 (COLO 205) was 40.8 µM (inactive) and the GI50 (NCI-H522) was 22 µM (inactive). The GI50 (U-251) was 48.9 µM (inactive), the GI50 (IGROV-1) was 19.9 µM (inactive) and the GI50 (HCT-15) was 37.9 µM. The GI50 (HL-60) was 21.1 µM (inactive), the GI50 (DU-145) was 50.5 µM (inactive) and the GI50 (OVCAR-5) was 85.1 µM (inactive). The GI50 (NCI-H226) was > 100 µM (inactive), the GI50 (ACHN) was 44.8 µM (inactive) and the GI50 (NCI/ADR-RES) was 39.8 µM (inactive). The GI50 (SF-295) was 46.7 µM (inactive), the GI50 (HCT-116) was 65 µM (inactive) and the GI50 (OVCAR-4) was 47.5 µM (inactive). For the same compound, the GI50 (SW-620) was 38.4 µM (inactive), the GI50 (HCC 2998) was 36.7 µM (inactive) and the GI50 (MDA-MB-231) was 48.6 µM (inactive). The GI50 (TK-10) was 42.4 µM (inactive), the GI50 (NCI-H23) was 42.1 µM (inactive) and the GI50 (MCF7) was 33.6 µM (inactive). For the same compound, the GI50 (UACC-62) was 52.2 µM (inactive), the GI50 (SF-268) was 19.9 µM (inactive) and the GI50 (EKVX) was 37.8 µM (inactive). The GI50 (HOP-62) was 90.2 µM (inactive) and the GI50 (SNB-19) was 53.5 µM (inactive).
With CC1=NN(c2cccc(Cl)c2)C(=N/c2nc3ccccc3s2)/C1=C\C=C\c1ccccc1 the GI50 (Hs-578T) was 24.3 µM (inactive), the GI50 (CCRF-CEM) was 1.77 µM (inactive) and the GI50 (SK-MEL-5) was 20.6 µM (inactive). For the same compound, the GI50 (MOLT-4) was 0.369 µM (active), the GI50 (RPMI-8226) was 18.9 µM (inactive) and the GI50 (SR) was 0.359 µM (active). The GI50 (UACC-257) was 31.5 µM (inactive), the GI50 (NCI-H460) was 29.7 µM (inactive) and the GI50 (LOX IMVI) was 32.2 µM (inactive). For the same compound, the GI50 (K562) was 9.23 µM (inactive), the GI50 (OVCAR-8) was 36.1 µM (inactive) and the GI50 (CAKI-1) was 28.4 µM (inactive). The GI50 (786-0) was 41.4 µM (inactive), the GI50 (SK-OV-3) was 34.6 µM (inactive) and the GI50 (SF-539) was 43.8 µM (inactive). For the same compound, the GI50 (UO-31) was 28.4 µM (inactive), the GI50 (KM12) was 34.2 µM (inactive) and the GI50 (A498) was 24.7 µM (inactive). The GI50 (M14) was 42.3 µM (inactive), the GI50 (MDA-MB-435) was 33.8 µM (inactive) and the GI50 (HT-29) was 33.5 µM (inactive). The GI50 (OVCAR-3) was 27 µM (inactive), the GI50 (T47D) was 46.7 µM (inactive) and the GI50 (SK-MEL-28) was 29.3 µM (inactive). For the same compound, the GI50 (NCI-H522) was 28.8 µM (inactive), the GI50 (IGROV-1) was 20 µM (inactive) and the GI50 (HCT-15) was 32.2 µM. For the same compound, the GI50 (HL-60) was 13.8 µM (inactive), the GI50 (RXF 393) was 51.4 µM (inactive) and the GI50 (DU-145) was 50.4 µM (inactive). The GI50 (OVCAR-5) was 46.5 µM (inactive), the GI50 (NCI-H226) was 79.8 µM (inactive) and the GI50 (ACHN) was 28 µM (inactive). For the same compound, the GI50 (NCI/ADR-RES) was 59.2 µM (inactive), the GI50 (SF-295) was 33.5 µM (inactive) and the GI50 (HCT-116) was 28.2 µM (inactive). For the same compound, the GI50 (OVCAR-4) was 45.1 µM (inactive), the GI50 (SW-620) was > 100 µM (inactive) and the GI50 (TK-10) was 34.9 µM (inactive). The GI50 (NCI-H23) was 32.1 µM (inactive), the GI50 (MCF7) was 25.7 µM (inactive) and the GI50 (SF-268) was 35.8 µM (inactive). For the same compound, the GI50 (EKVX) was 47.6 µM (inactive), the GI50 (MDA-N) was 37.2 µM (inactive) and the GI50 (HOP-62) was 30.8 µM (inactive).
